# Experimental data: patent US20250017949A1, “METHODS AND COMPOSITIONS FOR SUPPRESSING AGING-ASSOCIATED CLONAL HEMATOPOIESIS” (The Jackson Laboratory, priority 2021, published 2025)
# How the values were obtained:
# control HSCs [1] = experiment: Transplant of TNFα-treated cultured HSCs into recipient mice; format: in vivo, mouse
# Excerpt: (§1) FIGS. 6A-6I: Dnmt3a-mutant HSCs maintain self-renewal and generate B lymphoid cells following TNF stimulation. (FIG. 6A) Schematic of experimental design to test response of Mx-Cre control and Dnmt3a^R878H/+ HSCs to recombinant TNFα ex vivo under growth conditions that favor HSC expansion. (FIG. 6B) Normalized frequency of donor-derived cells in PB of recipient mice post-transplant. Significance calculated using mixed-effects model with Fisher's LSD. (FIG. 6C) Representative flow cytometry plots showing B cell and myeloid cell frequencies in donor derived PB at 4 weeks post-transplant. (FIG. 6D) Frequency of myeloid (left) and B cells (right) in donor derived PB at 4 weeks post-transplant. Significance calculated using two-way ANOVA with Sidak's multiple comparison's test. (FIG. 6E) Schematic of experimental design to test TNFα response of Fgd5-Cre^ERT control vs. Fgd5-Cre^ERT Dnmt3a^R878H/+ HSCs, and germline Dnmt3a^+/+ vs. Dnmt3a^+/− HSCs. (FIGS. 6F-6G) Viable cell counts after 7 days of culture. Significance calculated using Brown-Forsythe and Welch ANOVA with Welch's correction. (FIG. 6H) Frequency of donor-derived cells in PB of recipient mice post-transplant. Significance calculated using mixed-effects model with Fisher's LSD. (FIG. 6I) Frequency of myeloid (left) and B cells (right) in donor derived PB at 4 weeks post-transplant. Significance calculated using one-way ANOVA with Fisher's LSD. (FIGS. 6B, 6D, and 6F-6I) Dots represent individual recipient mice, boxes show 25 to 75th percentile, line is median, whiskers show min to max. *P<0.05, **P<0.01, ***P<0.001.
# (§2) To assess the extent to which TNFα directly promotes young Dnmt3a-mutant HSC survival, we added recombinant TNFα to mixed cultures of wild-type and Dnmt3a-mutant HSCs in media that sustains HSC self-renewal (FIG. 6A). […] Post culture, cells were transplanted into recipient mice to assess HSC function. […] Thus, TNFα-driven myeloid regeneration at the expense of HSC self-renewal is disrupted in Dnmt3a^R878H/+ HSCs. Instead, TNFα-treated Dnmt3a^R878H/+ HSCs favor lymphoid regeneration and maintain their self-renewal. To assess this in complementary models, we used tamoxifen-inducible Fgd5-Cre-driven Dnmt3a^R878H/+ mice as well as germline Dnmt3a^+/− mice to isolate HSCs for TNFα stimulation (FIG. 6E). […] Thus, TNFα-induced HSC survival and disrupted myeloid regeneration are broadly relevant to Dnmt3a-mutant clonal hematopoiesis.
# (§3) Two months post-poly(I:C), 25 CD45.2^+ from Dnmt3a^+/+ Mx-Cre or Dnmt3a^fl-R878H/+ Mx-Cre donors (CD45.2+) and 25 CD45.1^+/CD45.2^+ HSCs were sorted into a 96-well plate with Ham's F12 media containing final concentrations of 1× Penicillin-streptomycin-glutamine (Gibco cat. #10378-016), 10 mM HEPES (Gibco cat. #15630080), 1× Insulin-transferrin-selenium-ethanolamine (Gibco cat. #51500-056), 100 ng/mL recombinant murine TPO (Biolegend cat. #593302), 10 ng/mL recombinant murine SCF (StemCell Technologies cat. #78064), and 1 mg/mL polyvinyl alcohol (Sigma cat. #P8136)^19+/−10 ng/mL recombinant murine TNF-α (PeproTech cat. #315-01A) and cultured for seven days at 37° C. and 5% CO2. TNF-α was spiked into the cultures on day 4 and 6. On day 7, half of the wells were stained and analyzed by flow cytometry and half of the wells were harvested, mixed with 1×10^6 CD45.1^+ post-ficoll whole BM cells, and transplanted into young, lethally irradiated CD45.1^+ recipients. PB was tracked monthly for six months post-transplant via flow cytometry.
# Dnmt3a-mutant HSCs [2] = experiment: as above; format: in vivo, mouse
# Excerpt: as §1, §2, §3
# control HSCs [3] = experiment: PVA HSC culture with recombinant TNFα, cell number; format: cell-based, mouse
# Excerpt: as §1
# (§4) To assess the extent to which TNFα directly promotes young Dnmt3a-mutant HSC survival, we added recombinant TNFα to mixed cultures of wild-type and Dnmt3a-mutant HSCs in media that sustains HSC self-renewal (FIG. 6A). […]
# as §3, with “TNF-α was spiked into the cultures on day 4 and 6.” left out, “PB was tracked monthly for six months post-transplant via flow cytometry.” left out
# Dnmt3a-mutant HSCs [4] = experiment: PVA HSC culture with recombinant TNFα, cell number; format: cell-based, mouse; conditions: recombinant TNFα added to mixed cultures of wild-type and Dnmt3a^R878H HSCs
# Excerpt: as §1, §4
# as §3, with “TNF-α was spiked into the cultures on day 4 and 6.” left out, “PB was tracked monthly for six months post-transplant via flow cytometry.” left out
# [5] = donor-derived cells in PB post-transplant, FIG. 6B
# [6] = post-transplant, data not shown
substance,measurement,setting,value
TNFα,Long-term multilineage engraftment of TNFα-treated control HSCs,control HSCs [1]; [5],did not sustain long-term multilineage engraftment
same,"HSC, MPP^Mk/E and MPP^G/M populations in bone marrow from TNFα-treated control HSCs",control HSCs [1]; [6],"trends toward reduced HSC, MPP^Mk/E, and MPP^G/M populations"
same,Dnmt3a^+/− B lymphoid relative to myeloid cell production,"Dnmt3a-mutant HSCs [2]; donor-derived PB at 4 weeks post-transplant, FIG. 6I",transiently increased Dnmt3a^+/− B lymphoid relative to myeloid cell production
same,Dnmt3a^R878H/+ B lymphoid cell production,"Dnmt3a-mutant HSCs [2]; donor-derived PB at 4 weeks post-transplant, FIGS. 6C-6D",transiently increased Dnmt3a^R878H/+ B lymphoid cell production
same,Mature hematopoietic cell production and engraftment of TNFα-treated Dnmt3a^R878H/+ HSCs,Dnmt3a-mutant HSCs [2]; [5],increased production of mature hematopoietic cells in the short term (4 weeks post-transplant) followed by sustained multilineage engraftment
same,"HSC, MPP^Mk/E and MPP^G/M populations in bone marrow from TNFα-treated Dnmt3a^R878H/+ HSCs",Dnmt3a-mutant HSCs [2]; [6],not observed in TNFα-treated Dnmt3a^R878H/+ HSCs
same,Multilineage engraftment of TNFα-treated Dnmt3a^+/− HSCs,"Dnmt3a-mutant HSCs [2]; vs TNFα-treated control HSCs, FIG. 6H",sustained multilineage engraftment at a higher frequency than TNFα-treated control HSCs
same,Number of control cells produced over the culture period,"control HSCs [3]; Mx-Cre control, 10 ng/mL TNF-α, seven days, data not shown",reduced the number of control
same,Viable cell counts of control cells after 7 days of culture,"control HSCs [3]; controls of the Fgd5-Cre and germline Dnmt3a^+/− models, FIGS. 6F-6G",reduced the number of control
same,Wild-type progeny in mixed cultures,control HSCs [3]; recombinant TNFα added to mixed cultures of wild-type and Dnmt3a^R878H HSCs,depletion of wild-type progeny
same,Maintenance of Dnmt3a^R878H HSC progeny in mixed cultures,Dnmt3a-mutant HSCs [4],preferential maintenance of Dnmt3a^R878H HSC progeny
